Data published in US20200009168A1, “MICROBIOME REGULATORS AND RELATED USES THEREOF” (KALEIDO BIOSCIENCES, INC., priority 2015, published 2020).

Experiments:
[1] = tested on: Ruminococcus obeum ATCC 29714 "ROB.74"; test: Sugar-supported growth of commensal bacteria, ROB.74; assay type: cell-based; details: 0.5% w/v sugar, 37° C., 18-24 hours, anaerobic; OD600 divided by OD600 with 0.5% w/v dextrose
Method: (§1) An in vitro assay was performed to assess the ability of various bacterial strains, including commensals of the gastrointestinal tract, to utilize different sugars as growth substrates. This assay was designed to assess the ability of selected natural monosaccharides, disaccharides and synthetic sugars to promote the growth of microbiota associated with a healthy state. Bacterial strains were handled at all steps in an anaerobic chamber (AS-580, Anaerobe Systems) featuring a palladium catalyst. The chamber was initially made anaerobic by purging with an anaerobic gas mixture of 5% hydrogen, 5% carbon dioxide and 90% nitrogen and subsequently maintained in an anaerobic state using this same anaerobic gas mixture. Anaerobicity of the chamber was confirmed daily using Oxoid anaerobic indicator strips that change color in the presence of oxygen. All culture media, assay plates, other reagents and plastic consumables were pre-reduced in the anaerobic chamber for 24-48 hours prior to contact with bacteria. Sugars were prepared at 5% w/v in water, filter-sterilized and added to Costar 3370 assay plates for a final concentration of 0.5% w/v in the assay, with each microbiome regulator assayed in two non-adjacent wells and dextrose and water supplied as positive and negative controls.
(§2) Bacterial isolates were obtained from the American Type Culture Collection (ATCC) and Leibniz Institute DSMZ-German Institute of Microorganisms and Cell Cultures (DSMZ). Cultures of the Bacteroidetes Bacteroides caccae ATCC 43185 “BCA.26”, Bacteroides thetaiotaomicron ATCC 29741 “BTH.8”, Bacteroides cellulosilyticus DSM 14838 “BCE.71”, Parabacteroides distasonis ATCC 8503 “PDI.6” and Prevotella copri DSM 18205 “PCO.72”; the Clostridiales Clostridium scindens ATCC 35704 “CSC.32”, Dorea formicigenerans ATCC 27755 “DFO.36” and Ruminococcus obeum ATCC 29714 “ROB.74”; and the Bifidobacteria Bifidobacterium longum ATCC 15707 “BLO.16” and Bifidobacterium longum DSM 20088 “BLO.83”, were grown anaerobically in Chopped Meat Glucose broth (CMG, Anaerobe Systems), a pre-reduced enriched medium including lean ground beef, enzymatic digest of casein, yeast extract, potassium phosphate, dextrose, cysteine, hemin and Vitamin K1, for 18-48 hours at 37° C. Inocula were prepared by determining the optical density of each culture at […] (OD600) in a Costar 3370 polystyrene 96-well flat-bottom assay plate using a Biotek Synergy 2 plate reader with Gen5 2.0 All-In-One Microplate Reader Software according to manufacturer's protocol, and diluting the cells to OD600 0.01 final in defined and semi-defined media that were prepared without sugars. D. formicigenerans, P. distasonis and B. longum isolates were tested in 900 mg/L sodium chloride, 26 mg/L calcium chloride dihydrate, 20 mg/L magnesium chloride hexahydrate, 10 mg/L manganese chloride tetrahydrate, 40 mg/L ammonium sulfate, 4 mg/L iron sulfate heptahydrate, 1 mg/L cobalt chloride hexahydrate, 300 mg/L potassium phosphate dibasic, 1.5 g/L sodium phosphate dibasic, 5 g/L sodium bicarbonate, 0.125 mg/L biotin, 1 mg/L pyridoxine, […], 75 mg/L histidine, 75 mg/L glycine, 75 mg/L tryptophan, 150 mg/L arginine, 150 mg/L methionine, 150 mg/L threonine, 225 mg/L valine, 225 mg/L isoleucine, 300 mg/L leucine, 400 mg/L cysteine, and 450 mg/L proline (Theriot C M et al. Nat Commun. 2014; 5:3114), supplemented with 0-3.5% (v/v) CMG. B. thetaiotaomicron, B. caccae and B. cellulosyliticus were tested in 100 mM potassium phosphate buffer (pH 7.2), 15 mM sodium chloride, 8.5 mM ammonium sulfate, 4 mM L-cysteine, 1.9 μM hematin, 200 μM L-histidine, 100 μM magnesium chloride, 1.4 μM iron sulfate heptahydrate, 50 μM calcium chloride, 1 μg/mL vitamin K3 and 5 ng/mL vitamin B12 (Martens E C et al. Cell Host & Microbe 2008; 4, 447-457). […]

[2] = tested on: Bacteroides caccae ATCC 43185 "BCA.26"; test: Sugar-supported growth of commensal bacteria, BCA.26; assay type: cell-based; details: 0.5% w/v sugar, 37° C., 18-24 hours, anaerobic; OD600 divided by OD600 with 0.5% w/v dextrose
Method: as §1, §2

[3] = tested on: Bacteroides cellulosilyticus DSM 14838 "BCE.71"; test: Sugar-supported growth of commensal bacteria, BCE.71; assay type: cell-based; details: 0.5% w/v sugar, 37° C., 18-24 hours, anaerobic; OD600 divided by OD600 with 0.5% w/v dextrose
Method: as §1, §2

[4] = tested on: Dorea formicigenerans ATCC 27755 "DFO.36"; test: Sugar-supported growth of commensal bacteria, DFO.36; assay type: cell-based; details: 0.5% w/v sugar, 37° C., 18-24 hours, anaerobic; OD600 divided by OD600 with 0.5% w/v dextrose
Method: as §1, §2

[5] = tested on: Bacteroides thetaiotaomicron ATCC 29741 "BTH.8"; test: Sugar-supported growth of commensal bacteria, BTH.8; assay type: cell-based; details: 0.5% w/v sugar, 37° C., 18-24 hours, anaerobic; OD600 divided by OD600 with 0.5% w/v dextrose
Method: as §1, §2

panel of 10 commensals = test: Sugar-supported growth, whole panel of 10 commensals; assay type: cell-based; details: 0.5% w/v sugar, summary in words
Method: as §1, §2

[6] = tested on: Bifidobacterium longum DSM 20088 "BLO.83"; test: Sugar-supported growth of commensal bacteria, BLO.83; assay type: cell-based; details: 0.5% w/v sugar, 37° C., 18-24 hours, anaerobic; OD600 divided by OD600 with 0.5% w/v dextrose
Method: as §1
Bacterial isolates were obtained from the American Type Culture Collection (ATCC) and Leibniz Institute DSMZ-German Institute of Microorganisms and Cell Cultures (DSMZ). Cultures of the Bacteroidetes Bacteroides caccae ATCC 43185 “BCA.26”, Bacteroides thetaiotaomicron ATCC 29741 “BTH.8”, Bacteroides cellulosilyticus DSM 14838 “BCE.71”, Parabacteroides distasonis ATCC 8503 “PDI.6” and Prevotella copri DSM 18205 “PCO.72”; the Clostridiales Clostridium scindens ATCC 35704 “CSC.32”, Dorea formicigenerans ATCC 27755 “DFO.36” and Ruminococcus obeum ATCC 29714 “ROB.74”; and the Bifidobacteria Bifidobacterium longum ATCC 15707 “BLO.16” and Bifidobacterium longum DSM 20088 “BLO.83”, were grown anaerobically in Chopped Meat Glucose broth (CMG, Anaerobe Systems), a pre-reduced enriched medium including lean ground beef, enzymatic digest of casein, yeast extract, potassium phosphate, dextrose, cysteine, hemin and Vitamin K1, for 18-48 hours at 37° C. Inocula were prepared by determining the optical density of each culture at […] (OD600) in a Costar 3370 polystyrene 96-well flat-bottom assay plate using a Biotek Synergy 2 plate reader with Gen5 2.0 All-In-One Microplate Reader Software according to manufacturer's protocol, and diluting the cells to OD600 0.01 final in defined and semi-defined media that were prepared without sugars. […]

[7] = tested on: Prevotella copri DSM 18205 "PCO.72"; test: Sugar-supported growth of commensal bacteria, PCO.72; assay type: cell-based; details: 0.5% w/v sugar, 37° C., 18-24 hours, anaerobic; OD600 divided by OD600 with 0.5% w/v dextrose
Method: as §1, §2

[8] = tested on: Parabacteroides distasonis ATCC 8503 "PDI.6"; test: Sugar-supported growth of commensal bacteria, PDI.6; assay type: cell-based; details: 0.5% w/v sugar, 37° C., 18-24 hours, anaerobic; OD600 divided by OD600 with 0.5% w/v dextrose
Method: as §1, §2

[9] = tested on: Bifidobacterium longum ATCC 15707 "BLO.16"; test: Sugar-supported growth of commensal bacteria, BLO.16; assay type: cell-based; details: 0.5% w/v sugar, 37° C., 18-24 hours, anaerobic; OD600 divided by OD600 with 0.5% w/v dextrose
Method: as §1, §2

[10] = tested on: Clostridium scindens ATCC 35704 "CSC.32"; test: Sugar-supported growth of commensal bacteria, CSC.32; assay type: cell-based; details: 0.5% w/v sugar, 37° C., 18-24 hours, anaerobic; OD600 divided by OD600 with 0.5% w/v dextrose
Method: as §1, §2

[11] = studies by McCance et al (J Biol Chem (1930) 24:795-804); cited from earlier work
[12] = tested on: colonic regulatory T cells; details: in mice or in vitro; cited from earlier work

SMILES | Average Normalized Growth (NGV), ROB.74 [1] | Average Normalized Growth (NGV), BCA.26 [2] | Average Normalized Growth (NGV), BCE.71 [3] | Average Normalized Growth (NGV), DFO.36 [4] | Average Normalized Growth (NGV), BTH.8 [5] | taxa or strains of the commensal panel whose growth was supported (panel of 10 commensals) | Average Normalized Growth (NGV), BLO.83 [6] | Average Normalized Growth (NGV), PCO.72 [7] | Average Normalized Growth (NGV), PDI.6 [8] | Average Normalized Growth (NGV), BLO.16 [9] | Average Normalized Growth (NGV), CSC.32 [10] | absorption by the gastrointestinal tract [11] | expression of Foxp3, a T cell regulatory factor [12] | expression of IL-10, an anti-inflammatory cytokine [12]
O=C(CO)[C@@H](O)[C@H](O)[C@H](O)CO [D-fructose] | ++ (0.6-1) | ++ (0.6-1) | +++ (>1) | +++ (>1) | ++ (0.6-1) | supported some commensals from the taxa Bacteroidetes, Firmicutes, including Lachnospiraceae, and Bifidobacteria | +++ (>1) | ++ (0.6-1) | +++ (>1) | +++ (>1) | +++ (>1) |  |  | 
O=C[C@H](O)[C@@H](O)[C@@H](O)[C@H](O)CO [D-galactose] | + (0.2-0.6) | ++ (0.6-1) | +++ (>1) | + (0.2-0.6) | +++ (>1) | supported some commensals from the taxa Bacteroidetes, Firmicutes, including Lachnospiraceae, and Bifidobacteria | +++ (>1) | +++ (>1) | +++ (>1) | − (<0.2) | ++ (0.6-1) | readily absorbed |  | 
C[C@H](O)[C@H](O)[C@@H](O)[C@@H](O)C=O [L-rhamnose] |  | − (<0.2) |  | − (<0.2) | + (0.2-0.6) |  |  | + (0.2-0.6) | − (<0.2) | − (<0.2) | − (<0.2) | are not |  | 
O=C[C@@H](O)[C@H](O)[C@H](O)CO [arabinose] |  |  |  |  |  |  |  |  |  |  |  | are not |  | 
OC[C@H]1O[C@@H](O[C@H]2[C@H](O)[C@@H](O)C(O)O[C@@H]2CO)[C@H](O)[C@@H](O)[C@H]1O (stereo partly drawn) [lactose] | ++ (0.6-1) | +++ (>1) | +++ (>1) | +++ (>1) | +++ (>1) | supported some commensals from the taxa Bacteroidetes, Firmicutes, including Lachnospiraceae, and Bifidobacteria | +++ (>1) | +++ (>1) | +++ (>1) | ++ (0.6-1) | +++ (>1) |  |  | 
CCC(=O)O [propionate, propionic acid] |  |  |  |  |  |  |  |  |  |  |  |  | increased | increased
